Measurements taken from article PMC12591484 (PLOS One, 2025).

What was measured:
Assay in all cases: Drug protection from pCMBS modification (SCAMP)
Assay type in all cases: cell-based
[1] = biological target: T1, α1β3L231Cγ2L GABAA receptors (Homo sapiens, UniProt P14867+P18507+P28472, L256C); settings: β3L231C (β–); pCMBS 100 µM x 30 s; […] etomidate, 8 µM R-mTFD-MPAB or 10 µM pTFD-di-iPr-BnOH; n = 5
T1 construct: expressed in transfected cells; host or cells: Xenopus oocytes injected with capped mRNA, 1α:1β:5γ
T1 sequence (P28472 26-473 L256C, one chain of several): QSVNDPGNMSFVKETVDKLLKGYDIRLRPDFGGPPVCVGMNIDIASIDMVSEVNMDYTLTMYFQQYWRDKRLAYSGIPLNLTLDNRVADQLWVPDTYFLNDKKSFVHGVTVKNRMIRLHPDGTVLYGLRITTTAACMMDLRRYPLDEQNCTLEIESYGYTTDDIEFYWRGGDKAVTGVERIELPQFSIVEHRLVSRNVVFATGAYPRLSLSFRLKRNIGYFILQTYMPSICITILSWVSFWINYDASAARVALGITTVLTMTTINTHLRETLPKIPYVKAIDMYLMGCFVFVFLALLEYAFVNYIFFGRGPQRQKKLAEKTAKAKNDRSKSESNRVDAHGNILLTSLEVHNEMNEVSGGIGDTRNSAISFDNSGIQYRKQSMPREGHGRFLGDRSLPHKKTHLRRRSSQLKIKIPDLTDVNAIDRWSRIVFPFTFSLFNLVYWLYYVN
T1 sequence (P18507 40-475, one chain of several): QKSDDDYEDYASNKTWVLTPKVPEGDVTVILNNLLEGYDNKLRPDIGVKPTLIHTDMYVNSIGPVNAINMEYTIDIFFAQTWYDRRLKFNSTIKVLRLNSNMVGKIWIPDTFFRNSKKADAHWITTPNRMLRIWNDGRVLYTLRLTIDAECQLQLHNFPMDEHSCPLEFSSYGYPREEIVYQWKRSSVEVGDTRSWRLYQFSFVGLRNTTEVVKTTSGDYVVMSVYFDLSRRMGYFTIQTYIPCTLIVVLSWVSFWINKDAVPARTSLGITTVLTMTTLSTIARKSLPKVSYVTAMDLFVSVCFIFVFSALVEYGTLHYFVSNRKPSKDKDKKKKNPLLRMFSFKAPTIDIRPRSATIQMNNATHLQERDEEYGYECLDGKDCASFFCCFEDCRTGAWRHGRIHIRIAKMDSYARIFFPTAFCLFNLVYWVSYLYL
Description: (§1) Experiments were performed in ND-96 buffer at room temperature (20–22°C). Oocytes were placed in a low-volume (30µl) flow chamber and impaled with borosilicate microelectrodes filled with 3M KCl (resistance 0.5–3 MΩ) and voltage-clamped at −50 mV (model OC-725C; Warner Instruments, Hamden, CT, USA). Superfusate solutions in ND-96 were delivered at 2 ml/min from glass syringe reservoirs via computer-controlled valves (VC-8; Warner Instruments), a micro-manifold (ALA-VM8; ALA Scientific Instruments, Farmingdale, NY, USA), and PTFE tubing. Currents were digitized at 200 Hz on a computer running ClampEx v8.0 software (Molecular Devices, San Jose, CA, USA). Digitized traces were filtered with a 10-Hz low-pass Bessel function, leak corrected and analyzed for peak amplitude off-line using Clampfit v8 software (Molecular Devices).
(§2) Drug protection from pCMBS modification was assessed under pCMBS exposure conditions that produced approximately half of the maximal modification ratio for each mutant receptor, and a least a value of 3. This approach balanced the magnitude of functional modification signals (smaller with less pCMBS exposure) against the challenge of using a reversibly bound ligand to competitively block an irreversible covalent cysteine-modifying reaction. […] Each oocyte was used in a single SCAMP experiment. […] Etomidate was used as a positive control for anesthetic protection in α1M236C and β3M286C mutants and as a negative control in α1S270C, α1A291C, β3L231C, γ2S301C, γ2I242C, and γ2L246C mutants. R-mTFD-MPAB was used as a positive control in α1S270C, α1A291C, β3L231C, and γ2LS301C mutants and as a negative control in α1M236C and β3M286C mutants. For each cysteine mutant and protective drug combination, five oocytes were studied.
(§3) Non-linear least squares fits and statistical analyses were performed in Prism 10.4.0. (GraphPad Software, San Diego, CA, USA). […] Protection (steric inhibition of pCMBS modification) was inferred when anesthetics produced significant reductions in modification ratios relative to control (no anesthetic) values. The statistical significance threshold was p < 0.05.

[2] = biological target: T2, α1β3γ2S301C GABAA receptors (Homo sapiens, UniProt P14867+P18507+P28472, S340C); settings: γ2S301C (γ+); pCMBS 100 µM x 90 s; […] etomidate, 8 µM R-mTFD-MPAB or 10 µM pTFD-di-iPr-BnOH; n = 5
T2 construct: expressed in transfected cells; host or cells: Xenopus oocytes injected with capped mRNAs mixed 1α:1β:5γ
T2 sequence (P14867 28-456): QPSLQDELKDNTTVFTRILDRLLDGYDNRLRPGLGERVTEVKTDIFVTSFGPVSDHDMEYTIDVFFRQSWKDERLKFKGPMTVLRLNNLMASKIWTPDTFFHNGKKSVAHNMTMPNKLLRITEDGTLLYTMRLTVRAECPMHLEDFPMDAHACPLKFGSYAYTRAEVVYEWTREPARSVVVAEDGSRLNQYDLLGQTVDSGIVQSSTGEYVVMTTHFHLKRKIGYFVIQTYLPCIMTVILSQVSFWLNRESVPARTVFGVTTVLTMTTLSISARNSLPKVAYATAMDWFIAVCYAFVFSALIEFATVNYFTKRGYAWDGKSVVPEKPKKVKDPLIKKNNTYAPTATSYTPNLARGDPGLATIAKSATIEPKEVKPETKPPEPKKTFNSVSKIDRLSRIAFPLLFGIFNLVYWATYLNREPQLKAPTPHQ
T2 sequence (P28472 26-473): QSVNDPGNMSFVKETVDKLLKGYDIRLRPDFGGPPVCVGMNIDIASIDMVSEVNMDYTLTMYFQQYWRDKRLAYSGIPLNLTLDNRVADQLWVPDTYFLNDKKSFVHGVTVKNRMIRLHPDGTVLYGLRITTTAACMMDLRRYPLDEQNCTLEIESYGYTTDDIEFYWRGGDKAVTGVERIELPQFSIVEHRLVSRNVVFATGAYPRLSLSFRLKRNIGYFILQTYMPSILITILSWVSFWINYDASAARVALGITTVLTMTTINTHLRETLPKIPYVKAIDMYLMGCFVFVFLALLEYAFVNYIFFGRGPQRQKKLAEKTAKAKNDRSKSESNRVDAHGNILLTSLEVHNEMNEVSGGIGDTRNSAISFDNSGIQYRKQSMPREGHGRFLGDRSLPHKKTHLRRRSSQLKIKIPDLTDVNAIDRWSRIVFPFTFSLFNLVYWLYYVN
T2 sequence (P18507 40-475 S340C): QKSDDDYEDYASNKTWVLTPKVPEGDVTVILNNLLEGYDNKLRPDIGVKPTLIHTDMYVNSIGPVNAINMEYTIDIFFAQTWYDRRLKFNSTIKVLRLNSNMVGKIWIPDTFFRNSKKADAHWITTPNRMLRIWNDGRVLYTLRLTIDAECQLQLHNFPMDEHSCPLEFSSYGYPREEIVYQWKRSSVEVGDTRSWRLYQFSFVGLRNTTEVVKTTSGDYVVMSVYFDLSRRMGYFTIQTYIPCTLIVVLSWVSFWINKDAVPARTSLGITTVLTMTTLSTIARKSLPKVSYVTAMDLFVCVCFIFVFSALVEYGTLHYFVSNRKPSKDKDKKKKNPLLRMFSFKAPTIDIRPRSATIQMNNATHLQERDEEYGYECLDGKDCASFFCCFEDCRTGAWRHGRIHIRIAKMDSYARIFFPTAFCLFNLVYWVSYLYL
Description: as §1, §2, §3

[3] = biological target: T3, α1S270Cβ3γ2L GABAA receptors (Homo sapiens, UniProt P14867+P18507+P28472, S297C); settings: α1S270C (α+); pCMBS 1 µM x 90 s; […] etomidate, 8 µM R-mTFD-MPAB or 10 µM pTFD-di-iPr-BnOH; n = 5
T3 construct: expressed in transfected cells; host or cells: Xenopus oocytes injected with capped mRNA, 1α:1β:5γ
T3 sequence (P14867 28-456 S297C, one chain of several): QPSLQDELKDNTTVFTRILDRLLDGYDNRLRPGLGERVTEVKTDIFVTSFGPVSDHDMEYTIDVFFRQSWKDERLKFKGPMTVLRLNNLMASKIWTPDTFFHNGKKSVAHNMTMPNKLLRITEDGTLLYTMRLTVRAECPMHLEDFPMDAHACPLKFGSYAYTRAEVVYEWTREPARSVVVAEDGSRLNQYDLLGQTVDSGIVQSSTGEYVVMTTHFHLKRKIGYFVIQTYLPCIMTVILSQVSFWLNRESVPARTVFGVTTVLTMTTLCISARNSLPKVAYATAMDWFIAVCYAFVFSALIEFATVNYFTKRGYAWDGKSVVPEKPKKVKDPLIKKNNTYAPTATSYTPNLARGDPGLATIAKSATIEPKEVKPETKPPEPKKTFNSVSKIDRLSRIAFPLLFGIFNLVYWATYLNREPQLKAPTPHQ
T3 sequence (P18507 40-475, one chain of several): as the sequence (P18507 40-475, one chain of several) above
Description: as §1, §2, §3

[4] = biological target: T4, α1M236Cβ3γ2L GABAA receptors (Homo sapiens, UniProt P14867+P18507+P28472, M263C); settings: α1M236C (α–); pCMBS 10 µM x 30 s; […] etomidate, 8 µM R-mTFD-MPAB or 10 µM pTFD-di-iPr-BnOH; n = 5
T4 construct: expressed in transfected cells; host or cells: Xenopus oocytes injected with capped mRNA, 1α:1β:5γ
T4 sequence (P14867 28-456 M263C, one chain of several): as the sequence (P14867 28-456 S297C, one chain of several) above, with M236C, C270S counted along it
T4 sequence (P18507 40-475, one chain of several): as the sequence (P18507 40-475, one chain of several) above
Description: as §1, §2, §3

In the case of `C=CCC1(c2cccc(C3(C(F)(F)F)N=N3)c2)C(=O)NC(=O)N(C)C1=O` (stereo not shown) [R-mTFD-MPAB, R-5-allyl-1-methyl-5-(m-trifluoromethyl-diazirynylphenyl) barbituric acid], the “protection from pCMBS modification (significant reduction of modification ratio vs control, p < 0.05)” value [1] is reported as “protection was also inferred”, the “protection from pCMBS modification (significant reduction of modification ratio vs control, p < 0.05)” value [2] is reported as “protection was inferred” and the “protection from pCMBS modification (significant reduction of modification ratio vs control, p < 0.05)” value [3] is reported as “protection was inferred”.
With `CCOC(=O)c1cncn1[C@H](C)c1ccccc1` [etomidate, R-etomidate] the “protection from pCMBS modification (significant reduction of modification ratio vs control, p < 0.05)” value [4] was “protection was inferred”.
